From PMC10487436, “Towards Anticancer and Antibacterial Agents: Design and Synthesis of 1,2,3-Triazol-quinobenzothiazine Derivatives” (International Journal of Molecular Sciences, 2023)
≈ marks a conversion by molar mass, not a printed value.

What was measured:
[1] = test system: NHDF (normal human dermal fibroblasts); test: WST-1 proliferation assay, NHDF; format: cell-based; conditions: normal cells, 72 h exposure
Procedure: (§1) Compounds were evaluated for their antiproliferative activity using three cultured cell lines: A549 (human lung carcinoma, ATCC, Manassas, VA, USA), SNB-19 (human glioblastoma, DSMZ, German Collection of Microorganisms and Cell Cultures), T-47D (human breast cancer, ATCC, Manassas, VA, USA), and NHDF (normal human dermal fibroblasts, ATCC, Manassas, VA, USA). The cultured cells were kept at 37 °C and 5% CO2. The cells were seeded (1 × 10^4 cells/well/100 μL DMEM supplemented with 10% FCS, streptomycin, and penicillin) using 96-well plates (corning). Cells were counted in a hemocytometer (Burker chamber) using a phase contrast Olympus IX50 microscope equipped with a Sony SSC-DC58 AP camera and an Olympus DP10 digital camera.
(§2) The antiproliferative effect of the compounds exerted on cancer and normal cells was determined using the Cell Proliferation Reagent WST-1 assay (Roche Molecular Biochemicals, Mannheim, Germany). This assay is based on a colorimetric method using the enzymatic ability of viable cells to cause the bright, red-colored stable tetrazolium monosodium salt [2-(4-iodophenyl)-3-(4-nitrophenyl)-5-(2,4-disulfophenyl)–2H-tetra-zolium] to transform into the dark, red-colored soluble formazan. […] An increase in the amount of formazan dye formed correlated with the number of metabolically active cells in the culture. The formazan dye produced by metabolically active cells was quantified by absorbance readings at appropriate wavelengths. The examined cells were exposed to the tested compounds (1 mM DMSO stock) for 72 h at various concentrations (0.1–100 μM). The control was performed in order to eliminate the DMSO effect at the concentration used. Cell cultures were incubated with WST-1 (10 μL) for 1 h. The absorbance of the samples was measured against a background control at 450 nm using a microplate reader with a reference wavelength at 600 nm. The obtained results are expressed as the means of at least two independent experiments performed in triplicate. The antiproliferative activity of the tested compounds was compared to that of cisplatinum. The values of IC50 (a concentration of a compound that is required for 50% inhibition) were calculated from the dose-response relationship with respect to control. The results were reported as the mean (±std) of three separate experiments.

[2] = test system: A549 (human lung carcinoma); test: WST-1 proliferation assay, A549; format: cell-based
Procedure: as §1, §2

[3] = test system: SNB-19 (human glioblastoma); test: WST-1 proliferation assay, SNB-19; format: cell-based
Procedure: as §1, §2

[4] = test system: T-47D (human breast cancer); test: WST-1 proliferation assay, T47D; format: cell-based; conditions: 72 h exposure
Procedure: as §1, §2

[5] = test system: Mycobacterium smegmatis ATCC 700084; test: MBC, agar aliquot subculture method, MS; format: cell-based; conditions: Mycolicibacterium smegmatis, ATCC700084
Procedure: (§3) For the above-mentioned strains/isolates, the agar aliquot subculture method was used as a test for bactericidal agents. After the MIC value determination, the inoculum was transferred to CaMH (Oxoid) for staphylococci, BHI (Oxoid) for enterococci, and Middlebrook 7H9 (Difco) for mycobacteria medium using a multipoint inoculator. As indicated above, the plates were incubated on a thermostat at 37 °C for the appropriate time for each micro-organism. The lowest concentration of test compound at which ≤5 colonies were obtained was then evaluated as MBC, corresponding to a 99.9% decrease in CFU relative to the original inoculum.

[6] = test system: Mycobacterium marinum CAMP 5644; test: MIC, broth dilution micro-method, MM; format: cell-based; conditions: CAMP5644, 504 h, 21 days at 28 °C
[7] = test system: Mycobacterium marinum CAMP 5644; test: MBC, agar aliquot subculture method, MM; format: cell-based; conditions: CAMP5644
Procedure: as §3

[8] = test system: Mycobacterium smegmatis ATCC 700084; test: MIC, broth dilution micro-method, MS; format: cell-based; conditions: Mycolicibacterium smegmatis, ATCC700084, 72 h; 3 days at 37 °C
[9] = test system: Mycobacterium smegmatis ATCC 700084; conditions: MTT, 3 days
[10] = Homo sapiens, A549, 72 h exposure
[11] = Homo sapiens, SNB-19, 72 h exposure

| SMILES | IC50 [2, 10] [µM] | IC50 [3, 11] [µM] | IC50 ([4]; Homo sapiens, T47D) [µM] | IC50 ([1]; Homo sapiens, NHDF) [µM] | further results |
| --- | --- | --- | --- | --- | --- |
| N.N.[Cl][Pt][Cl] [CIS, cisplatin, reference compound] |  |  |  |  | IC50 [1]: 29.9 ± 3.3 µM; IC50 ([2]; 72 h exposure): 3 ± 0.2 µM; IC50 ([3]; 72 h exposure): 16.7 ± 1.3 µM; IC50 [4]: 9 ± 0.7 µM |
| O=C(O)c1cn(C2CC2)c2cc(N3CCNCC3)c(F)cc2c1=O [CPX, ciprofloxacin, reference compound] |  |  |  |  | MBC [5]: 0.38 µM (≈ 0.126 µg/mL); MIC [6]: 0.38 µM (≈ 0.126 µg/mL); MBC [7]: 0.38 µM (≈ 0.126 µg/mL); MIC [8]: 0.38 µM (≈ 0.126 µg/mL); Conc.: lowest multiple of MBC with at least 70% inhibition of respiratory activity [9]: 32× MIC (32× MBC); Conc.: lowest multiple of MIC with at least 70% inhibition of respiratory activity [9]: 32× MIC (32× MBC) |
| COc1cccc2c1C(=O)c1c(O)c3c(c(O)c1C2=O)C[C@@](O)(C(=O)CO)C[C@@H]3O[C@H]1C[C@H](N)[C@H](O)[C@H](C)O1 [DOX, doxorubicin, reference compound] | 1.3 ± 0.1 | 1.7 ± 0.2 | 0.8 ± 0.1 | 5.5 ± 0.5 |  |
| CO[C@H]1/C=C/O[C@@]2(C)Oc3c(C)c(O)c4c(O)c(c(/C=N/N5CCN(C)CC5)c(O)c4c3C2=O)NC(=O)/C(C)=C\C=C\[C@H](C)[C@H](O)[C@@H](C)[C@@H](O)[C@@H](C)[C@H](OC(C)=O)[C@@H]1C [RIF, rifampicin, reference compound] |  |  |  |  | MIC [6]: 2.43 µM (≈ 2 µg/mL); MIC [8]: 19.4 µM (≈ 16 µg/mL) |

More lines, main results first:

| IC50 [2, 10] [µM] | IC50 [3, 11] [µM] | IC50 ([4]; Homo sapiens, T47D) [µM] | SMILES | IC50 ([1]; Homo sapiens, NHDF) [µM] | further results |
| --- | --- | --- | --- | --- | --- |
| > 100 | > 100 | > 100 | Nc1ccc(OCc2cn(Cc3ccccc3)nn2)cc1 [5f, 1-benzyl-4-(4-aminophenoxy)methyl-1H-1,2,3-triazole] | > 100 |  |
| > 100 | > 100 | > 100 | Nc1cccc(OCc2cn(Cc3ccc([N+](=O)[O-])cc3)nn2)c1 [5h, 1-(4-nitrobenzyl)-4-(3-aminophenoxy)methyl-1H-1,2,3-triazole] | > 100 |  |
| > 100 | > 100 | > 100 | Nc1ccc(OCc2cn(Cc3ccc([N+](=O)[O-])cc3)nn2)cc1 [5i, 1-(4-nitrobenzyl)-4-(4-aminophenoxy)methyl-1H-1,2,3-triazole] | > 100 |  |
